The record followed here is ChEMBL document CHEMBL1201862, “PubChem BioAssay data set” (2004).

Where “and” joins values, the source holds several entries; their conditions need not be identical. Identical values can stand only once. Calls of active or inactive are those of the source.

Test [1] addresses T1, Bcl-2-related protein A1 (Mus musculus, UniProt Q07440).
T1 sequence (Q07440 whole entry): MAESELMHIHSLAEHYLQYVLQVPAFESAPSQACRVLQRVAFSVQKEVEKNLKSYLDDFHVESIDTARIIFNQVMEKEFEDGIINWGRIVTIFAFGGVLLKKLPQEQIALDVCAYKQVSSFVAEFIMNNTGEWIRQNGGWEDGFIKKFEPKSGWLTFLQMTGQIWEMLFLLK
Briefly: Bfl-1 inhibitors, primary screen, biochemical, fluorescence polarization, FITC-Bid, mouse (AID 432).

The target in test [2] is Glyceraldehyde-3-phosphate dehydrogenase (Homo sapiens, UniProt P04406).
The nature of test [3]: cytotoxicity in HPDE-C7 cells, cell-based, fluorescence, HTS (AID 430). Particulars: Homo sapiens. The format is functional.
Test [4] deals with T1, Bcl-2-related protein A1. Briefly: Bfl-1 inhibitors blocking BH3 peptide binding, confirmation, biochemical, TR-FRET, mouse Bfl-1 (AID 621).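 Note: TR-FRET binding of GST-Bfl-1 to FITC-labelled Bid peptide via terbium antibody.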
Test [5] is described as follows: cytotoxicity in KRAS-transformed pancreatic duct cells, primary screen, cell-based, fluorescence, HTS (AID 431).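 Note: cell line used: HPDE-C7K.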 The format is functional. Particulars: Homo sapiens.
The target of test [6] is T1, Bcl-2-related protein A1. Briefly: Bfl-1 binding inhibitors, SAR follow-up, biochemical, fluorescence polarization (AID 1070).
The nature of test [7]: growth suppression of PTEN-null colon cells, dose response, cell-based, HCT116 PTEN knockout (AID 1047).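 Note: HCT116 colon tumor cells with PTEN knocked out; cells exposed to compound for 60 hours before readout; potency for loss of cell viability measured by luminescence.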 The format is functional.
The target in test [8] is T2, Heat shock factor protein 1 (Mus musculus, UniProt P38532).
T2 sequence (P38532 whole entry): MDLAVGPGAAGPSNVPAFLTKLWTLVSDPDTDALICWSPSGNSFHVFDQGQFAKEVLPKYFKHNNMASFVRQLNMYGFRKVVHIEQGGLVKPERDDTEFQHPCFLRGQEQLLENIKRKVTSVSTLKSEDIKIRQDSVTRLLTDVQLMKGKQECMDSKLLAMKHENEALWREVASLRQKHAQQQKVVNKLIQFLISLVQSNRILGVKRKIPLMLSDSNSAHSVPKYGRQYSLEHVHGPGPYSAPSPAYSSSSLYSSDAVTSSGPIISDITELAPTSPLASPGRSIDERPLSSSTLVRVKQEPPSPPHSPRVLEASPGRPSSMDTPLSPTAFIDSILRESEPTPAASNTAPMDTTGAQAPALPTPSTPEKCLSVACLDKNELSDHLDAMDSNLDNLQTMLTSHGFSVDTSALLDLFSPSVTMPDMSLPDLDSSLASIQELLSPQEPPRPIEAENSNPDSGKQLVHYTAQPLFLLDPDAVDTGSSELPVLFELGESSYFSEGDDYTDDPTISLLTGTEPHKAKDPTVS
As to the kind of experiment: HSF1 potentiators in luciferase reporter cells, confirmation, cell-based, NIH3T3, luminescence, dose retest (AID 435004).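 Note: stress induced by proteasome inhibitor MG132 added 30 min after compound; luciferase reporter driven by HSF1 response element in NIH3T3 cells; actives raise luminescence as potentiators of the MG132 stress response.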 The format is functional.

The nature of test [9]: HEK293T cell cytotoxicity, dose response, cytotoxicity control for HIV Vif inhibitor project, cherry-picks (AID 652208). The format is functional, cell-based.
Test [10] is described as follows: Counterscreen for […] of the human trace amine associated receptor 1 (TAAR1): Fluorescence-based cell-based high throughput dose response assay to identify nonselective Ga16 agonists. The format is functional.
Test [11] deals with T3, Trace amine-associated receptor 1 (Homo sapiens, UniProt Q96RJ0).
T3 sequence (Q96RJ0 whole entry): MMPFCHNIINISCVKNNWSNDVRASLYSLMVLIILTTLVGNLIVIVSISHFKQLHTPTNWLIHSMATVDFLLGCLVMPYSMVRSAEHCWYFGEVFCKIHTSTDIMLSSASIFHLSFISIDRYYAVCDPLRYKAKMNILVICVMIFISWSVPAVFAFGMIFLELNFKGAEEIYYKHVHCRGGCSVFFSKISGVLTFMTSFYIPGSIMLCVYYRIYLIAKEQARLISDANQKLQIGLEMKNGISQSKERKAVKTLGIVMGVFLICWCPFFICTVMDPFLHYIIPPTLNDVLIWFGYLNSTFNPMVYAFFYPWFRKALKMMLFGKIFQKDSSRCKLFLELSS
Briefly: Fluorescence-based cell-based high throughput dose response assay to identify antagonists of the human trace amine associated receptor 1 (TAAR1). The format is functional.

A short description of test [12]: Counterscreen for antagonists of the human trace amine associated receptor 1 (hTAAR1): Fluorescence-based cell-based high throughput dose response assay to identify nonselective Ga16 antagonists. The format is functional.
The target in test [13] is T3, Trace amine-associated receptor 1. Briefly: Counterscreen for antagonists of the human trace amine associated receptor 1 (hTAAR1): Fluorescence-based cell-based high throughput dose response assay to identify TAAR1 Agonists. The format is functional.
A short description of test [14]: Luminescence Cell-Based Dose Confirmation HTS to Identify Activators of 5'UTR Stem-Loop Driven Alpha-Synuclein mRNA Translation in H4 Neuroglioblastoma Cells. [Related pubchem assays: 1829 (Project Summary), 1814 (Primary HTS)]. The format is functional.
A short description of test [15]: Luminescence Cell-Based Dose Response HTS to Identify Activators of Luciferase Translation or Activity in H4 […] Cells. [Related pubchem assays: 1829 (Project Summary), 1814 (Primary HTS)]. The format is functional.
The target in test [16] is T4, Neuropeptide Y receptor type 1 (Homo sapiens, UniProt P25929).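 Note: HEK293 cells with a CNG channel challenged with NPY then isoproterenol; potency as antagonist that reverses NPY suppression of cAMP signal.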
T4 sequence (P25929 whole entry): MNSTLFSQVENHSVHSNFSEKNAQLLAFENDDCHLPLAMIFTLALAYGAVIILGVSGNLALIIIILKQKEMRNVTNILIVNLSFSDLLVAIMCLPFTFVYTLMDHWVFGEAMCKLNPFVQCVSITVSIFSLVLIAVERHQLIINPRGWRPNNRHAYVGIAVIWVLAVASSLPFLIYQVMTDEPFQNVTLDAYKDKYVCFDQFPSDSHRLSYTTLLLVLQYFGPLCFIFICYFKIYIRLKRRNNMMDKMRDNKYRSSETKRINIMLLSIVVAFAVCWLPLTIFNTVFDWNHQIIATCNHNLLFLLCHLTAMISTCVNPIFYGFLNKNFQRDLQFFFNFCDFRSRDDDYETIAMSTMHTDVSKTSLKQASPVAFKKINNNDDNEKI
The format is functional.

A short description of test [17]: cells. The format is functional, cell-based.
Test [18] has as its system H4. Briefly: Luminescence Cell-Based Dose Response HTS to Identify Activators of 5'UTR Stem-Loop Driven Prion Protein mRNA Translation in H4 Neuroglioblastoma Cells. [Related pubchem assays: 1829 (Project Summary), 1814 (Primary HTS)]. The format is functional. Particulars: Homo sapiens.
Test [19] is described as follows: cells. The format is functional, cell-based. The source holds these as a separate data set.
In test [20] the target is T5, Neuropeptide Y receptor type 2 (Homo sapiens, UniProt P49146).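 Note: HEK293 cells expressing the receptor and a CNG channel; stimulus was NPY near EC95 followed by isoproterenol to raise cAMP; antagonist potency measured as restoring cAMP signal that NPY suppresses.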
T5 sequence (P49146 whole entry): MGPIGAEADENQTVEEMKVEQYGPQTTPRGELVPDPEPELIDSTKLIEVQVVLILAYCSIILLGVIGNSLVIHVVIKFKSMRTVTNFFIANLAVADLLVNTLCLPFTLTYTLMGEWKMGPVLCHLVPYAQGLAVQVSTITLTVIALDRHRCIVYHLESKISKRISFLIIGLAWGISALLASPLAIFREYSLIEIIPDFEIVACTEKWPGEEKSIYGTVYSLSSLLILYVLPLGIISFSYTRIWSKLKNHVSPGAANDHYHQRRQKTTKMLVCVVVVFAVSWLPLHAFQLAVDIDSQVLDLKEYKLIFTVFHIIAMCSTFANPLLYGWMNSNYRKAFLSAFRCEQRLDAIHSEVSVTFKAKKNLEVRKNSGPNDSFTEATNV
The format is functional, cell-based.

The target in test [21] is SWI/SNF-related matrix-associated actin-dependent regulator of chromatin subfamily A member 2 (Homo sapiens, UniProt P51531). As to the kind of experiment: Luminescence-based cell-based high throughput dose response assay to identify activators of the function of SWI/SNF related, matrix associated, actin dependent regulator of chromatin, subfamily a, member 2 (SMARCA2, BRM). The format is functional.

A short description of test [22]: Counterscreen for activators of the function of SWI/SNF related, matrix associated, actin dependent regulator of chromatin, subfamily a, member 2 (SMARCA2, BRM): Luminescence-based cell-based high throughput dose response assay to identify non-selective compounds using the VP16 reporter assay. The format is functional.
In test [23] the target is Beta-galactosidase (Escherichia coli, UniProt Q8VNN2). Briefly: Dose response counterscreen for EBI2 assay utilizing the enzyme, b-galactosidase. The format is functional.
Test [24] is described as follows: miR-122 activators in hepatoma reporter cells, dose response, cell-based, Huh7 psiCHECK-miR122, Renilla luciferase, cherry-picked (AID 651956).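 Note: huh7 hepatoma cells stably carrying a psiCHECK-2 miR-122 sensor plasmid; renilla luciferase signal reporting endogenous miR-122 activity after 48 h compound exposure.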 The format is functional.
Test [25] is described as follows: HEK293T cytotoxicity, dose response, cytotoxicity control for miR-122 modulator project, cell-based, inhibitor set, cherry-pick, set 2 (AID 720697). The format is functional.
Test [26] in a line: cells. The format is functional, cell-based. This is another data set of the same source.
In test [27] the target is T3, Trace amine-associated receptor 1. As to the kind of experiment: Fluorescence-based cell-based high throughput dose response assay to identify agonists of the human trace amine associated receptor 1 (TAAR1). The format is functional.
Test [28] has the same target. Briefly: Counterscreen for agonists of the human trace amine associated receptor 1 (hTAAR1): Fluorescence-based cell-based high throughput dose response assay to identify hTAAR1 agonist that also desensitize TAAR1 receptor response. The format is functional.
Test [29] can be described thus: cells. The format is functional, cell-based. The source holds these as a separate data set.
In test [30] the target is Protein disulfide-isomerase (Homo sapiens, UniProt P07237). Briefly: PDI inhibitors, insulin turbidity readout, confirmation, biochemical, dry powder samples, set 2 (AID 652146).
For test [31], the target named is Potassium channel subfamily K member 9 (Homo sapiens, UniProt Q9NPC2). Briefly: TASK3 (KCNK9) channel inhibitors, thallium flux, SAR follow-up, selectivity assay for TASK1 inhibitor project, cell-based, FluxOR thallium flux, concentration-response (AID 652211).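 Note: potency is for inhibitors of the channel.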 The format is functional.
The target in test [32] is Potassium channel subfamily K member 3 (Rattus norvegicus, UniProt O54912). As to the kind of experiment: SAR analysis for the identification of selective inhibitors of the two-pore domain potassium channel TASK1(KCNK3):Automated Electrophysiology. The format is functional.
In test [33] the target is Potassium channel subfamily K member 3 (Homo sapiens, UniProt O14649). As to the kind of experiment: TASK1 (KCNK3) potassium channel inhibitors, SAR follow-up, CHO cells, FluxOR thallium flux (AID 652212). The format is functional.
Test [34] concerns the target NS3 (Hepatitis C virus, UniProt A3EZJ3). Briefly: HCV NS3 helicase inhibitor potency, dose response, biochemical, fluorescence polarization, ChemBridge library (AID 743264).
Test [35] deals with Voltage-gated inwardly rectifying potassium channel KCNH2 (Homo sapiens, UniProt Q12809). Briefly: hERG channel inhibition in selectivity testing, SAR follow-up, selectivity assay for TASK1 inhibitor project, FluxOR thallium flux, concentration-response, CHO cells (AID 652194). The format is functional, cell-based.
Chain of Voltage-gated inwardly rectifying potassium channel KCNH2 (Q12809 whole entry): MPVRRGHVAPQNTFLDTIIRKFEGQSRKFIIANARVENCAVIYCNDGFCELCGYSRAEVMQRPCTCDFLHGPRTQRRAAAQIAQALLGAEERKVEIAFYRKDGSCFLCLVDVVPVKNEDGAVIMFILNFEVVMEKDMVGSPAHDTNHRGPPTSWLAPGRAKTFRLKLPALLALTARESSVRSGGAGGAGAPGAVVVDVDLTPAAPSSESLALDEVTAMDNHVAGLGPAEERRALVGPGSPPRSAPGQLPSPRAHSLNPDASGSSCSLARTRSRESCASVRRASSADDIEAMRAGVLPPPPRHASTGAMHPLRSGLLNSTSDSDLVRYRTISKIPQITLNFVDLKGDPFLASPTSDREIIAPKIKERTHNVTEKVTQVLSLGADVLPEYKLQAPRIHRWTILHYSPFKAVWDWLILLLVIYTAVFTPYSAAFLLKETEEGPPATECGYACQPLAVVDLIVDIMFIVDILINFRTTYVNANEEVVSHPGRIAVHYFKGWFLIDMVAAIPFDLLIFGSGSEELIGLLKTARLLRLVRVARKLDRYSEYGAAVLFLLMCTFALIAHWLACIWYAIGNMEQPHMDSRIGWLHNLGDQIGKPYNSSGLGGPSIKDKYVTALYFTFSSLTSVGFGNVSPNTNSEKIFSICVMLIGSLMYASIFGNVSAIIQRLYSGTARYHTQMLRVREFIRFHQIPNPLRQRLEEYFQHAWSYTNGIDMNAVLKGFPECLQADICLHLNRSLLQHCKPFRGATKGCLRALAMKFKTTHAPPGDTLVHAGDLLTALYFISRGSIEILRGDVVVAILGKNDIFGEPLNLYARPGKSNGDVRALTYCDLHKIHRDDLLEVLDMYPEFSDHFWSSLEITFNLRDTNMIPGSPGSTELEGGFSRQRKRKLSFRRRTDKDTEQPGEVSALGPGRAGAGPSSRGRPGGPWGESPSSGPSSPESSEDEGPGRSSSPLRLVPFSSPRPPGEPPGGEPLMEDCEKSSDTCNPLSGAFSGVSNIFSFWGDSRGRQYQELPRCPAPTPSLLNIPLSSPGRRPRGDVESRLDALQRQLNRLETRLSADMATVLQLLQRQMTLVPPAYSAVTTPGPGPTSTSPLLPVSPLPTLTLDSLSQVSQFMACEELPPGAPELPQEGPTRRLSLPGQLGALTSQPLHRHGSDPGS

Chain of Potassium channel subfamily K member 3 (Homo sapiens, UniProt O14649) (O14649 whole entry): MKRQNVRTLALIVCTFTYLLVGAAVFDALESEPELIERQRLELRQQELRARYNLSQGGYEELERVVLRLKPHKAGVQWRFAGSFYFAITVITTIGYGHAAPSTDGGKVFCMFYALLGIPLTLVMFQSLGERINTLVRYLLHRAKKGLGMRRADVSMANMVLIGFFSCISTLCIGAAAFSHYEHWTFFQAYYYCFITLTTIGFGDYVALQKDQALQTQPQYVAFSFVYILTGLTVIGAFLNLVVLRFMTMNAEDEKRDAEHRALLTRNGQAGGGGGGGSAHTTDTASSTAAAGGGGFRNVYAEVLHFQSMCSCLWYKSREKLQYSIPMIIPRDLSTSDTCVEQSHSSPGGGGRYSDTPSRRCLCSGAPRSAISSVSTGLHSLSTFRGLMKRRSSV
Chain of Potassium channel subfamily K member 9 (Q9NPC2 whole entry, the tested form may be a part): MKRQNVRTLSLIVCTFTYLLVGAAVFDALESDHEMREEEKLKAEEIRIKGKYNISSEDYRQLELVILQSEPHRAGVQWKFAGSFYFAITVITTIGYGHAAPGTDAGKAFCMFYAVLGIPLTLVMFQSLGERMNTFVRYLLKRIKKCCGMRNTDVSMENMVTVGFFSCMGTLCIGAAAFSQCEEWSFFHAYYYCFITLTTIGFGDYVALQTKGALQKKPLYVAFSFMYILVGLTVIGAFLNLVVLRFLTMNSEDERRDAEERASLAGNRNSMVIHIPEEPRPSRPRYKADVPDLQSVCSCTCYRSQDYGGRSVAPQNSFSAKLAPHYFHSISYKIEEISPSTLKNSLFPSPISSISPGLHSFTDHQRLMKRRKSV
Chain of Glyceraldehyde-3-phosphate dehydrogenase (P04406 whole entry): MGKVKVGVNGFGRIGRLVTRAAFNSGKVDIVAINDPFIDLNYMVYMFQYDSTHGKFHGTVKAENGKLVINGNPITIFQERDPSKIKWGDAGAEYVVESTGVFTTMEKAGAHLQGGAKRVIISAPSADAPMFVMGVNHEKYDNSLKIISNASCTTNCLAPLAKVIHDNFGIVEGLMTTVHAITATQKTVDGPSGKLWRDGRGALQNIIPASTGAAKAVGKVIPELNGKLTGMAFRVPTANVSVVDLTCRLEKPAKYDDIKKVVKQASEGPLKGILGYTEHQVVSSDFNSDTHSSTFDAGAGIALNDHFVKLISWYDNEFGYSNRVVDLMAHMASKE
Chain of NS3 (A3EZJ3 whole entry): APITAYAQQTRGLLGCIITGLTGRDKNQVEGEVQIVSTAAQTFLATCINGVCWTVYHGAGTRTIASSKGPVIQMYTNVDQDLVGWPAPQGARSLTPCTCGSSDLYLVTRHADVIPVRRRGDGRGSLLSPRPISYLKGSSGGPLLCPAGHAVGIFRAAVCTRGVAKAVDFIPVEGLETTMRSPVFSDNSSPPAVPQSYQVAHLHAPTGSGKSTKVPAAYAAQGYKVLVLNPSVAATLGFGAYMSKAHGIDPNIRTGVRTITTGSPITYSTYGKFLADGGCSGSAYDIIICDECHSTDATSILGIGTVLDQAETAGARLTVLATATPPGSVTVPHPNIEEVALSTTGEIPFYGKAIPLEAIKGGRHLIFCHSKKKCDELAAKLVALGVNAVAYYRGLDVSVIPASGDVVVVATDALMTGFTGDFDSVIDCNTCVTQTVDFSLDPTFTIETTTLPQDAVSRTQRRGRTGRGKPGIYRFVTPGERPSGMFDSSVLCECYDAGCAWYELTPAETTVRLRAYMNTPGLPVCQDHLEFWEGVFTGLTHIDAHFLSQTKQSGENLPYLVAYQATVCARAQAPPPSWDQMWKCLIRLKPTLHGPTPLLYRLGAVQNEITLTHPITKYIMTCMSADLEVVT
Chain of Beta-galactosidase (Q8VNN2 whole entry): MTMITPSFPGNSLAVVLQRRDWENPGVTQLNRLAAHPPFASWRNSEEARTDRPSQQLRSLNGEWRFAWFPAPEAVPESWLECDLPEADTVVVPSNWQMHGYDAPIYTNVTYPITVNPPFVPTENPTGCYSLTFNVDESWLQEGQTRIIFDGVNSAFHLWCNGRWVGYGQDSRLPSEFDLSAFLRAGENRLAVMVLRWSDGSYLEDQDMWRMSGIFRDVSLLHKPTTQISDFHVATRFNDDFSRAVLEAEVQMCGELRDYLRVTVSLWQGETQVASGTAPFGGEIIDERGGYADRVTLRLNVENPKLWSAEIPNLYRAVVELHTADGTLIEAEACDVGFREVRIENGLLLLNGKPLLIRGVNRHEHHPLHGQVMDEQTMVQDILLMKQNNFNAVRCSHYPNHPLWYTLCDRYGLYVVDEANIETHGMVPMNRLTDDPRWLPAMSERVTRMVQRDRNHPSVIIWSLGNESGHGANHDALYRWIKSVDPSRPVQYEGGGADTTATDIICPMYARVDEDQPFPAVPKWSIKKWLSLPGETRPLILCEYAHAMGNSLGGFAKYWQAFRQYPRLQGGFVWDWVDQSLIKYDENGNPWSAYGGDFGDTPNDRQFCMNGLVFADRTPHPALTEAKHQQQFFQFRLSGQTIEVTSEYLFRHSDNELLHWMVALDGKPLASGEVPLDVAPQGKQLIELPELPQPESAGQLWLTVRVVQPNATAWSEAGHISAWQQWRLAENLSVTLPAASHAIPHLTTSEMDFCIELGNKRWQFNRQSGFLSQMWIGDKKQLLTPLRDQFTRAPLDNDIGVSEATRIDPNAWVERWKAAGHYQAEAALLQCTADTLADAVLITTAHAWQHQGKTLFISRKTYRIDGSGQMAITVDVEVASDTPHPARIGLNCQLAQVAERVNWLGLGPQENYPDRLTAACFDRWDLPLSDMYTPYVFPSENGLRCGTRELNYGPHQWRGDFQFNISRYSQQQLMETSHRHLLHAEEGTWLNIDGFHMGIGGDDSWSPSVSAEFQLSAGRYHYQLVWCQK
Chain of Protein disulfide-isomerase (P07237 whole entry): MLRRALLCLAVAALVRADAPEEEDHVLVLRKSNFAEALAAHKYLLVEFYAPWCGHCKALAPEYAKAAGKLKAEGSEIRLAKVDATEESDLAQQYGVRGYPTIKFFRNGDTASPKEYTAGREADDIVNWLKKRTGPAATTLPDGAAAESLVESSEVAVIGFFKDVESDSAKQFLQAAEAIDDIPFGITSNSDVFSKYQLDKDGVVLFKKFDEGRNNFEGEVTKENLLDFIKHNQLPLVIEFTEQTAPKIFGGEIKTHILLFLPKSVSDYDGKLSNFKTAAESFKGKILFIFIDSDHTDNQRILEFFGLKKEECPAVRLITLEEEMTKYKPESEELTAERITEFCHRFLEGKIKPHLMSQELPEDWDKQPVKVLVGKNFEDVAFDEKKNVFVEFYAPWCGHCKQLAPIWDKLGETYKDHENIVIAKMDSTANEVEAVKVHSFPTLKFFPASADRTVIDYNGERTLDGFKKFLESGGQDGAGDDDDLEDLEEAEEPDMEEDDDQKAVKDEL
Chain of Potassium channel subfamily K member 3 (Rattus norvegicus, UniProt O54912) (O54912 whole entry, the tested form may be a part): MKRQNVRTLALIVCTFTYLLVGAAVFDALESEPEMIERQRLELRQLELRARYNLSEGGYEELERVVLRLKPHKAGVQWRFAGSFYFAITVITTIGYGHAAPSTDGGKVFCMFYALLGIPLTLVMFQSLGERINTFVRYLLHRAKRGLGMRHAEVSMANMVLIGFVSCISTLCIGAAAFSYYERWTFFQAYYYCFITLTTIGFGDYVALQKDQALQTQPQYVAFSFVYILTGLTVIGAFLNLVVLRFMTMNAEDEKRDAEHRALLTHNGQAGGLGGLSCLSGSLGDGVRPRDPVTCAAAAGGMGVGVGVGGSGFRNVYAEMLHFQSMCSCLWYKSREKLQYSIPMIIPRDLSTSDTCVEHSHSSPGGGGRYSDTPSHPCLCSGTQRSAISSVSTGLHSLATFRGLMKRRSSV

For the molecule `COc1ccc(-c2cc(C(F)(F)F)nc(S(C)(=O)=O)n2)cc1OC`, the IC50 is 25.4 µM (active) in test [1]; > 100 µM (not active) in test [2]; 12.7 µM (active) and 4.51 µM (active) in [4]; 23.2 µM (active) in test [6]. Moreover, the EC50 was 4.49 µM (active) in test [3], 3.47 µM (active) in test [5], 32.1 µM (active) in [7] and 5.47 µM (active) in [8]. Further, the AC50 in test [9] is 13.2 µM (active).
Consider `O=C(CCN1C(=O)C2C3C=CC(C3)C2C1=O)NCCc1ccccc1` (configuration not stated), for which the EC50 in test [10] and in [13] was > 29.9 µM (inactive) in each case. The IC50 in test [11] and in test [12] was > 29.9 µM (inactive) throughout.
As to `O=c1c2ccccc2nc2c3ccccc3c(NCCN3CCOCC3)nn12`, the EC50 in test [14] was > 120 µM (not active); in test [15] it was 18 µM (active); in [17] it was > 350 µM (not active); in [18] it was > 120 µM (inconclusive); in [19] it was > 350 µM (not active); in test [21], > 10.1 µM (inactive). The EC50 in test [22] is > 91.2 µM (inactive). Further, the figures for the IC50 in [16] and in test [20] were 4.38 µM (active) and > 35 µM (not active), respectively.
On to `O=C(/C=C/c1ccc(F)cc1)N1CCN(Cc2ccccc2)CC1`, for which the IC50 in [23] is > 80 µM (inactive).
As for `C[C@H]1CN([C@@H](C)CO)S(=O)(=O)c2ccc(-c3ccc(C(=O)N(C)C)cc3)cc2O[C@H]1CN(C)C(=O)C1CCC1`, the AC50 in [24] is 10.9 µM (active); in test [25] it was 2.2 µM (active).
As to `CC(C)[C@H](NC(=O)CC1CCCC1)C(=O)N1CCC[C@H]1C(=O)NCCc1ccccc1Cl`, the IC50 was > 29.9 µM (inactive) in test [26] and 4 µM (active) in [28]. For the same molecule, the EC50 in test [27] is 2.01 µM (active); in test [29] it was > 29.9 µM (inactive).
For `CCOC(=O)C1(CCOc2ccccc2)CCN(Cc2ccc(OC)c(Cl)c2)CC1`, the AC50 in [30] is > 30 µM (inactive).
For the molecule `Cc1cccc(C(=O)Nc2cccc(NC(=O)c3ccccc3OC(F)(F)F)c2)c1`, the IC50 is 1.05 µM (active) in [31], 0.06 µM (active) in test [32] and 0.028 µM (active) in test [33].
Consider `Cc1ccc(N2C(=O)NC(=O)/C(=C\c3ccc(-c4ccc(Cl)c(C(=O)O)c4)o3)C2=O)cc1`, for which the IC50 in test [34] was 133 µM (active).
Take `COc1ccccc1NC(=O)c1cccc(NC(=O)C2CCCC2)c1`: the IC50 in test [31] was 1.55 µM (active); in [35], 43.5 µM (active); in [33] it was 0.238 µM (active).
